{
  "source": "patent US20230203471A1",
  "about": "“METHOD AND PLATFORM FOR DISRUPTING INTRACELLULAR MICROTUBULES” (National Tsing Hua University, priority 2021, published 2023)",
  "key": {"[1]": {"tested_on": "intracellular microtubules in HeLa cells", "test": "Live-cell imaging of MT disruption (MT filament area) in transfected HeLa cells", "format": "cell-based", "details": "nocodazole 3.3 µM"}, "[2]": {"tested_on": "intracellular microtubules in HeLa cells", "test": "Live-cell imaging of MT disruption (MT filament area) in transfected HeLa cells", "format": "cell-based", "experimental": "The procedures of live-cell imaging are as follows. Live transfected cells cultured on poly(d-lysine)-coated glass coverslips (Hecht Assistent) were treated with either 100 nM rapamycin for rapid induction of protein dimerization and translocation or MT-targeting agents (10 µM nocodazole or 500 µM colchicine) during imaging. Live-cell imaging was conducted on a Nikon T1 inverted fluorescence microscope (Nikon) with a 60× oil objective (Nikon), a Prime camera (Photometrics), and 37° C., 5% CO2 heat stage (Live Cell Instrument). Rapid recruitment of proteins of interest (POIs) was imaged at 5- or 10-sec intervals, whereas the process of MT disruption was imaged at 1-min intervals. Images were obtained using Nikon NIS-Elements AR software and processed with Huygens Deconvolution Software (Scientific Volume Imaging). Image analysis was mainly performed with Nikon NIS-Elements AR software.\nThe procedures of measurement of MT filament area are as follows. The MT filaments in living cells were labeled with EMTB-CFP-FRB and imaged in real time (RAW image). The rolling ball correction was used to remove the cytosol background from the RAW images, which was carried out with the Nikon NIS-Elements AR software. Images were processed to generate the binary MT filament pattern via the Otsu threshold and analyzed by Fiji software.\nFIGS. 2D and 2E show rapidly recruiting engineered spastins onto MTs. […] The top three layers are cells that simultaneously express EMTB-CFP-FRB and dNSpastin3Q-YFP-FKBP. The lower three layers are cells that simultaneously express EMTB-CFP-FRB and dNSpastin-YFP-FKBP-C2Lact. The color bar on the right indicates the brightness value represented by the color of the FRET signal. […] Data are shown as the mean ± S.E.M. It was noteworthy that MT disruption triggered by dNSpastin3Q-YFP-FKBP upon rapamycin treatment (T½ = 11.05 ± 1.52 min) was much faster than that of dNSpastin-YFP-FKBP-C2Lact upon rapamycin treatment (T½ = 53.08 ± 8.08 min), and treatment of two common MTAs, nocodazole (10 µM; T½ = 54.02 ± 10.29 min), colchicine (500 µM; T½ = 94.28 ± 8.63 min; see FIGS. 2F to 2J). […] In FIG. 2H, HeLa cells transfected with the indicated constructs were treated with nocodazole (Noc)([…], a type of MTA), colchicine (Col)(500 µM, a type of MTA), or rapamycin (Rapa)(100 nM); scale bar, 10 µm. […] Data are shown as the mean ± S.E.M. Student’s t-tests were performed, with the resulting p-values indicated."}},
  "data": [
    {"smiles": "COC(=O)Nc1nc2ccc(C(=O)c3cccs3)cc2[nH]1", "note": "[nocodazole]", "values": [
      {"measurement": "time required to disrupt half of the intracellular microtubules", "setting": "[1]", "result": "106.86 ± 12.11", "unit": "min"},
      {"measurement": "microtubules removed within one hour", "setting": "[2]; 3.3 µM nocodazole", "result": 31, "unit": "%"},
      {"measurement": "T½ of MT disruption", "setting": "[2]; nocodazole 10 µM, HeLa cells", "result": "54.02 ± 10.29", "unit": "min"}
    ]}
  ]
}
